The assay concerns T.b. brucei (strain 427) bloodstream form parasites. The assay is described as follows: T.b. brucei single concentration screen (10 μM). To be noted: Trypanosoma brucei, read-out: T.b.brucei % viability (10 µM).

Turning to `CC(=O)N1CCc2cc3nc(C)cc(C)c3cc21` [MMV054312, CC(=O)N1CCc2cc3nc(C)cc(C)c3cc12], the viability at 10 µM was found to be 91%.

On to `O=C(Nc1ccc(N2CCNCC2)cc1)c1ccn2ncc(-c3cccc(Cl)c3)c2n1` [Compound 67, Clc1cccc(c1)c2cnn3ccc(nc23)C(=O)Nc4ccc(cc4)N5CCNCC5], for which the viability at 10 µM was found to be 1%.

In the case of `Cc1ccccc1C(=O)N1N=C(Nc2ccccc2)SC1(C)C` [MMV688771, Cc1ccccc1C(=O)N2N=C(Nc3ccccc3)SC2(C)C], the viability at 10 µM turned out to be 97%.

`CC(C)(C)c1cnc(NC(=O)c2ccccc2O)s1` [Compound 64, CC(C)(C)c1cnc(NC(=O)c2ccccc2O)s1]: the viability at 10 µM was found to be 77%.

`COc1ccc(C2=NCCN2)cc1-c1cn(-c2cccc(C3=NCCN3)c2)nn1` [MMV688547, COc1ccc(cc1c2cn(nn2)c3cccc(c3)C4=NCCN4)C5=NCCN5]: the viability at 10 µM was 77%.

Take `CCCCOC(=O)Nc1cc2nc(C3CCCCC3)[nH]c2cc1N1CCCC1` [MMV687730, CCCCOC(=O)Nc1cc2nc([nH]c2cc1N3CCCC3)C4CCCCC4]: the viability at 10 µM was 61%.

In the case of `CCC(Sc1nc2ccccc2o1)C(=O)Nc1nccs1` (stereo not shown) [MMV676383, CCC(Sc1oc2ccccc2n1)C(=O)Nc3nccs3], the viability at 10 µM amounted to 86%.

For the compound `N#Cc1nc(-c2ccccc2F)oc1NCCc1ccccc1` [MMV676384, Fc1ccccc1c2oc(NCCc3ccccc3)c(n2)C#N], the viability at 10 µM came out at 107%.

As for `CC(C)c1ncc(-c2ccncc2)c([C@H]2CC[C@H](CNC(=O)c3cccnc3)CC2)n1` [MMV676442, CC(C)c1ncc(c2ccncc2)c(n1)[C@@H]3CC[C@@H](CNC(=O)c4cccnc4)CC3], the viability at 10 µM is 103%.

With `C[C@]1(O)C[C@@H](c2nc(-c3ccc4ccc(-c5ccccc5)nc4c3)c3c(N)nccn32)C1` [MMV676605, C[C@@]1(O)C[C@@H](C1)c2nc(c3ccc4ccc(nc4c3)c5ccccc5)c6c(N)nccn26], the viability at 10 µM was 67%.

Turning to `CN1CCCC1CCO[C@](C)(c1ccccc1)c1ccc(Cl)cc1` (stereo partly shown) [Compound 62, ClC1=CC=C([C@@](C)(C2=CC=CC=C2)OCCC3N(C)CCC3)C=C1], the viability at 10 µM was determined as 2%.

Turning to `Cc1nc(-c2ccccn2)nc(N2CCC(Cc3ccccc3)C2)c1Cl` (stereo not shown) [MMV659004, Cc1nc(nc(N2CCC(Cc3ccccc3)C2)c1Cl)c4ccccn4], the viability at 10 µM came out at 109%.

`Nc1ncnc2c1c(-c1cnc3ccccc3c1)nn2CC1CCNCC1` [MMV688411, Nc1ncnc2n(CC3CCNCC3)nc(-c3cnc4ccccc4c3)c12]: the viability at 10 µM came to 104%.

In the case of `CCOc1ccc(-c2nc(NC(=O)CS(=O)(=O)c3ccccc3)sc2C)cc1` [MMV007638, CCOc1ccc(cc1)c2nc(NC(=O)CS(=O)(=O)c3ccccc3)sc2C], the viability at 10 µM was 73%.

With `COc1ccccc1CNC(=O)c1cc(C2CC2)nc2c1cnn2C(C)C` [MMV020517, COc1ccccc1CNC(=O)c2cc(nc3c2cnn3C(C)C)C4CC4], the viability at 10 µM came to 93%.

For the compound `CC(C)(C)OC(=O)N1CCN(c2cc(-c3ccc(Oc4ccccc4)cc3)n[nH]2)CC1` [MMV676057, CC(C)(C)OC(=O)N1CCN(CC1)c2cc(n[nH]2)c3ccc(Oc4ccccc4)cc3], the viability at 10 µM stood at 21%.

For `O=C(Nc1cccc(-c2ccc(NCCCN3CCCC3)nc2)c1)c1ccccc1` [MMV023953, O=C(Nc1cccc(c1)c2ccc(NCCCN3CCCC3)nc2)c4ccccc4], the viability at 10 µM worked out at 57%.

With `CC(C)(C)CN1C(=O)C(c2ccccc2)(c2ccccc2)N=C1N` [MMV026550, CC(C)(C)CN1C(=NC(C1=O)(c2ccccc2)c3ccccc3)N], the viability at 10 µM worked out at 104%.

Take `CC1COC(Cn2cncn2)(c2ccc(Oc3ccc(Cl)cc3)cc2Cl)O1` (stereo not shown) [MMV688943, CC1COC(Cn2cncn2)(O1)c3ccc(Oc4ccc(Cl)cc4)cc3Cl]: the viability at 10 µM is 100%.

`O=C(Nc1nnc(-c2ccc(Cl)cc2)o1)c1cccc(C(F)(F)F)c1` [MMV102872, FC(F)(F)c1cccc(c1)C(=O)Nc2oc(nn2)c3ccc(Cl)cc3]: the viability at 10 µM stood at 51%.

Consider `COc1cc(OC)cc(C(=O)NCC2Cc3cc(Cl)cc(-c4ccncc4)c3O2)c1` (stereo not shown) [MMV007471, COc1cc(OC)cc(c1)C(=O)NCC2Cc3cc(Cl)cc(c3O2)c4ccncc4], for which the viability at 10 µM was found to be 74%.

Turning to `c1cc(C2=NCCN2)cc(-c2cc(-c3ccc(C4=NCCN4)cc3)no2)c1` [MMV688361, C1CN=C(N1)c2ccc(cc2)c3cc(on3)c4cccc(c4)C5=NCCN5], the viability at 10 µM stood at 18%.

With `CCc1cc(=O)n(C)c(SC(C)C(=O)Nc2ccc(F)cc2)n1` (stereo not shown) [MMV688980, CCC1=CC(=O)N(C)C(=N1)SC(C)C(=O)Nc2ccc(F)cc2], the viability at 10 µM worked out at 101%.

Consider `CC(=O)N(CCN(C(=O)c1ccc(F)cc1)c1ccccc1)c1ccccc1` [MMV676064, CC(=O)N(CCN(C(=O)c1ccc(F)cc1)c2ccccc2)c3ccccc3], for which the viability at 10 µM is 100%.

Regarding `Cc1cc2nc(NC(=O)C(C)(C)C)nc(Cl)c2n1Cc1ccc(Cl)cc1` [MMV688704, Cc1cc2nc(NC(=O)C(C)(C)C)nc(Cl)c2n1Cc1ccc(Cl)cc1], the viability at 10 µM was found to be 88%.

Consider `O=C1COCc2ccc(Br)cc2N1Cc1ccc(C(F)(F)F)cc1` [MMV032995, FC(F)(F)c1ccc(CN2C(=O)COCc3ccc(Br)cc23)cc1], for which the viability at 10 µM is 113%.

In the case of `CC(C)C(NC(=O)Cc1cccc2ccccc12)C(=O)Nc1cccc(C#N)c1` (stereo not shown) [MMV020591, CC(C)C(NC(=O)Cc1cccc2ccccc12)C(=O)Nc3cccc(c3)C#N], the viability at 10 µM stood at 93%.

Consider `Cc1cccc(NC(=O)c2cc(S(=O)(=O)N(C)c3ccc(F)cc3)ccc2Cl)n1` [MMV676528, CN(c1ccc(F)cc1)S(=O)(=O)c2ccc(Cl)c(c2)C(=O)Nc3cccc(C)n3], for which the viability at 10 µM turned out to be 96%.

On to `O=[N+]([O-])c1cn2c(n1)OC[C@@H](OCc1ccc(OC(F)(F)F)cc1)C2` [MMV688755, [O-][N+](=O)c1cn2C[C@@H](COc2n1)OCc3ccc(OC(F)(F)F)cc3], for which the viability at 10 µM came to 95%.

`COc1ccccc1C(C)NCC(=O)Nc1cc(C(F)(F)F)ccc1Cl` (stereo not shown) [MMV020321, COc1ccccc1C(C)NCC(=O)Nc2cc(ccc2Cl)C(F)(F)F]: the viability at 10 µM was 106%.

For `COc1cccc(CC(=O)N2CCC(n3c(C)nc4ccc(F)cc43)CC2)c1` [MMV020081, COc1cccc(CC(=O)N2CCC(CC2)n3c(C)nc4ccc(F)cc34)c1], the viability at 10 µM worked out at 99%.

Regarding `COc1ccc(-c2nc(-c3cccc(NC(=O)Cc4ccc(F)cc4)c3)no2)cc1OC` [MMV676571, COc1ccc(cc1OC)c2onc(n2)c3cccc(NC(=O)Cc4ccc(F)cc4)c3], the viability at 10 µM turned out to be 53%.

Take `c1ccc(Oc2ccc(-c3cc(N4CCOCC4)[nH]n3)cc2)cc1` [MMV045105, C1CN(CCO1)c2cc(n[nH]2)c3ccc(Oc4ccccc4)cc3]: the viability at 10 µM was determined as 33%.

On to `Cc1ccccc1CN1CCC(O)(c2ccc(Cl)c(C(F)(F)F)c2)CC1` [MMV688846, Cc1ccccc1CN2CCC(O)(CC2)c3ccc(Cl)c(c3)C(F)(F)F], for which the viability at 10 µM is 98%.

In the case of `COc1cc(C2=NCCN2)ccc1-n1cc(-c2cccc(C3=NCCN3)c2)nn1` [MMV688474, COc1cc(ccc1n2cc(nn2)c3cccc(c3)C4=NCCN4)C5=NCCN5], the viability at 10 µM was found to be 105%.

As for `COc1ccc2nc(C)cc(OCC(=O)NCc3ccccc3)c2c1` [MMV687189, COc1ccc2nc(C)cc(OCC(=O)NCc3ccccc3)c2c1], the viability at 10 µM was 92%.

As to `CCCCc1ccc(C(=O)Nc2nccc3ccccc23)nc1` [MMV687254, CCCCc1ccc(nc1)C(=O)Nc2nccc3ccccc23], the viability at 10 µM was 81%.

Usually viability stands for a read-out of living cells in per cent, often relative to untreated cells.

Source of the values: publication PMC6301270 (MedChemComm, 2018).
